Measured values reported in patent publication US11499197B2, “Prognosis method of multiple myeloma” (CENTRE NATIONAL DE LA RECHERCHE SCIENTIFIQUE, priority 2017, dated 2022).

Assays:
[1] = tested on: HMCLs (AMO1, OPM2, XG1, XG21); experiment: HMCL viability, single and co-treatment with conventional MM drugs (CTG); format: cell-based, human; settings: for synergy with lenalidomide / Lenalidomide treatment on co-treatment with kinase inhibitor / synergy with melphalan: inhibitor at IC20; for synergy with lenalidomide / synergy with melphalan: XG1, XG21, AMO1, OPM2; for Lenalidomide treatment on co-treatment with kinase inhibitor: AMO1 and OPM2
Method: (§1) AMO-1 and OPM2 HMCLs were purchased from DSMZ (Braunschweig, Germany), XG1 and XG21 were obtained as described (Moreaux et al., 2011). HMCLs were cultured in RPMI 1640 medium, 10% FCS (control medium). For XG-IL-6 dependent HMCLs 2 ng/ml IL-6 was added. Cells were cultured in 96-well flat-bottom microtiter plates in the presence of a concentration range of selected compounds: AZD7762 and OTSSP167 (Selleck, euromedex), HITOPK032, XL413, SRPIN340 (Sigma), AZ3146, Centrinone B (Tocris). Cell Titer Glo Luminescent Assay (Promega, Madison, Wis., USA) was used to assess cell viability, and the 50% inhibition (IC50) was determined using GraphPad Prism software (http://www.graphpad.com/scientific-software/prism/).
(§2) Statistical comparisons were done with unpaired or paired Student's t-tests. The effect of drug combination was evaluated using the methods developed by Chou and Talalay (Chou and Talalay, 1984) by calculating the combination Index (CI), with CI<1, CI=1, and CI>1 respectively indicating synergism, additive effects, and antagonism. Here we used CI=0.90-1.10 to indicated additivity.
Keeping in mind the main objective of identifying alternative and efficient complementary treatment for MM patients, the inventors next performed co-treatment on HMCLs with commonly used therapeutic drugs in MM (e.g. Melphalan, Lenalidomide, Velcade) and the different kinases inhibitors. In order to fit to the goal of a combination treatment the inventors used an arbitrary […] for all the kinases inhibitors, which the inventors associated with various concentration of the standard therapeutic.

XG21 = experiment: Cell Titer Glo viability, XG21 HMCL; format: cell-based, human; settings: XG21, CTG viability
Method: as §1, §2

OPM2 = experiment: Cell Titer Glo viability, OPM2 HMCL; format: cell-based, human; settings: OPM2, CTG viability
Method: as §1, §2

XG1 = experiment: Cell Titer Glo viability, XG1 HMCL; format: cell-based, human; settings: XG1, CTG viability
Method: as §1, §2

AMO1 HMCL [2] = experiment: Apoptosis (annexin V, PARP cleavage) by flow cytometry; format: cell-based, human; settings: for cell death via apoptosis (annexin) on co-treatment: AMO1, sub-lethal Melphalan or Lenalidomide + inhibitor at IC20, 4 days
Source text: FIG. 14 represents graphs showing that inhibitors increase apoptosis (annexin and PARP) in AMO1 cell line; Annexin and PARP were monitored by flow cytometry after 4 days treatments. p-value: *<0.05; **<0.01; ***<0.001.
FIG. 25 represents graphs illustrating that the co-treatments induce cell death and differentially affect DNA damages in AMO1 HMCL. Co-treatment with selected kinase inhibitors at IC20 and Melphalan or Lenalidomide.
(§3) Cells were culture in 12 wells plate for 4 days. Apoptotic cells were detected using phycoerythrin-conjugated Annexin V (PE-annexin V, BD Pharmingen). For the cell cycle and DNA damage, we used the Apoptosis, DNA damage and cell proliferation kit (BD), following the manufacturer's protocol.

AMO1 HMCL [3] = experiment: DNA damage (γH2AX) by flow cytometry; format: cell-based, human; settings: for γH2AX (DNA damages), used alone: AMO1, 4 days
Source text: FIG. 27 represents graphs illustrating that the co-treatments induce cell death and differentially affect DNA damages in AMO1 HMCL.
FIG. 28 represents graphs representing DNA damages following SRPIN340 and AZ3146 co-treatment in AMO1 cell line. γH2AX were monitored by flow cytometry after 4 days treatments. p-value: *<0.05; **<0.01; ***<0.001.
as §3

AMO1 = experiment: Cell Titer Glo viability, AMO1 HMCL; format: cell-based, human; settings: for IC20 / IC50: AMO1, CTG viability
Method: as §1, §2

AMO1 HMCL [4] = experiment: Cell cycle analysis by flow cytometry; format: cell-based, human; settings: for cell cycle arrest on co-treatment with melphalan or lenalidomide: AMO1, 4 days co-treatment; for cell cycle arrest: AMO1, single agent
Source text: FIG. 15 represents graphs showing the effects of the treatments with inhibitors on cell cycle in AMO1 cells. p-value: *<0.05; **<0.01; ***<0.001.
FIG. 29 represents graphs illustrating that Co-treatments differentially affect cell cycle in AMO1 cell line. Cotreatment with Melphalan or Lenalidomide and A) AZD7762; B) OTSSP167; C) Centrinone B; D) XL413. Cell cycle was monitored by flow cytometry after 4 days co-treatments. p-value: *<0.05; **<0.01; ***<0.001.
as §3

[5] = tested on: primary Mouse myeloma (5T33vv) and mouse myeloma cell line (5T33vt); experiment: Mouse myeloma cell viability (CTG); format: cell-based; settings: 5T33vv and 5T33vt, CTG after 24, 48 or 96 hours
Method: FIG. 18 represents graphs cell viability of primary Mouse myeloma (5T33vv) and mouse myeloma cell line (5T33vt), monitored by CTG after 24, 48 or 96 hours treatment with indicated inhibitors.

[6] = tested on: normal BM microenvironment cells from patients; experiment: Toxicity on non-tumoral bone marrow cells in primary patient cultures; format: cell-based, human; settings: N=5 patients, 4 days
Source text: CD138 amount was monitored by flow cytometry after 4 days of treatment.

[7] = tested on: primary MM cells from patients; experiment: Primary myeloma cell cytotoxicity (CD138 flow cytometry); format: cell-based, human; settings: N=5 patients, 4 days of treatment
Source text: FIG. 16 represents graphs showing the % of CD138+ cells after treatment by AZD7762, OTSSP167 and Centrinone B in 5 different primary MM cells.
FIG. 17 represents graphs showing that the three tested inhibitors reduce % of tumor MM cells without toxicity on normal BM microenvironment cells from patients (N=5). CD138 amount was monitored by flow cytometry after 4 days of treatment.
Bone marrow of patients presenting with previously untreated MM (N=5) at the university hospital of Montpellier was obtained after patients' written informed consent in accordance with the Declaration of Helsinki and agreement of the Montpellier University Hospital Centre for Biological Resources (DC-2008-417). Primary myeloma cells of patients were cultured with or without graded concentrations of selected inhibitors and MMC cytotoxicity evaluated using anti-CD138-Phycoerythrin monoclonal antibody and CD38-Allophycocyanin (Beckman-Coulter) as described (Moreaux et al., 2012).

XG7 WT and XG7 Mres = experiment: Viability of melphalan sensitive and resistant cell lines (CTG); format: cell-based, human; settings: inhibitor at IC20
Method: FIG. 32 represents a graph of the calculated IC50 for the co-treatment with melphalan and selected kinase inhibitors at IC20. Melphalan sensitive (XG7 WT) and Resistant (XG7 MRes) cell lines were treated for 4 days with the selected kinases inhibitors. Cell viability was monitored by the CTG. p-value: *<0.05; **<0.01; ***<0.001.
The facts that: 1) all drugs tested are actively decreasing HMCLs viability and induce apoptosis; 2) co-treatment with melphalan leads to synergy or potentialized the decrease of cell viability; 3) some of the selected kinases inhibitors can reverse the resistance to lenalidomide in AMO1 HMCL, led us to question the capability of these drugs to reverse or reduce also melphalan resistance. In that purpose, the inventors used a cell line developed in the inventors' laboratory, and that has been culture to resist to melphalan (Mres) compare to its negative control (WT) (FIG. 30). The inventors first tested the capacity of the different inhibitors to reduce cell viability in this model. All tested kinase's inhibitors lower cell viability of the control or the melphalan resistant cell line.

AMO1 HMCL [8] = experiment: Proteome profiler array (phospho kinases, apoptosis proteins); format: cell-based, human; settings: AMO1, 48 h treatment
Method: Proteins accumulations were monitored after 48 h treatment on AMO1 HMCL using proteome profiler array. Relative amount was calculated as the mean of pixel density. Phospho kinases and apoptosis proteins were quantified using the dedicated proteome Profiler™ array (RD systems, Bio-techne) following the manufacturer instructions. 500 μg and 300 μg protein were used for the two arrays respectively.

Compound | synergy with lenalidomide [1] | IC50 (XG21) [nM] | IC50 (OPM2) [nM] | IC50 (XG1) [nM] | cell death via apoptosis (annexin) on co-treatment (AMO1 HMCL [2]) | γH2AX (DNA damages), used alone (AMO1 HMCL [3]) | IC20 (AMO1) [nM] | IC50 (AMO1) [nM] | Lenalidomide treatment on co-treatment with kinase inhibitor [1] | synergy with melphalan [1] | cell cycle arrest (AMO1 HMCL [4]) | cell viability in mouse cellular model of multiple myeloma [5] | effect on non-tumoral cells [6] | number of tumoral cells (CD138+) [7] | melphalan resistance on co-treatment with melphalan (XG7 WT and XG7 Mres) | other results
O=C(Nc1cc(C(F)(F)F)ccc1N1CCCCC1)c1ccncc1 [SRPIN340] | synergized with the conventional treatment | 25800 | 33200 | 30100 | didn't have any significant additional effect on cell death | showed an activity on […]H2AX recruitment when used alone | 30000 | 43300 | – | – | – | – | – | – | – | apoptosis as measured by annexin V staining and PARP clivage (AMO1 HMCL [2]; AMO1, single agent, 2 concentrations surrounding IC50, 4 days): all drugs but SRPIN340/SRPK1 induced apoptosis
Nc1cccc2c1CN(C1CCC(=O)NC1=O)C2=O (stereo not shown) [lenalidomide] | – | – | – | – | – | didn't demonstrate any particular effect | – | – | – | – | – | – | – | – | – | Lenalidomide effect on viability alone or in combination ([1]; lenalidomide resistant HMCLs XG1 and XG21): no effect of the treatment alone or in combination; Lenalidomide IC50, treatment alone (AMO1; AMO1): undetermined
CC(=O)c1cnc2ccc(-c3cc(Cl)c(O)c(Cl)c3)nc2c1N[C@H]1CC[C@H](CN(C)C)CC1 [OTSSP167] | synergized with the conventional treatment | – | – | – | increase cell death via apoptosis | showed an activity on […]H2AX recruitment when used alone | – | – | potentialized | synergized with the conventional treatment | arrested the cells in S phase | demonstrated similar efficiency | barely affected | reduced the number of tumoral cells | – | cell cycle arrest on co-treatment with melphalan or lenalidomide (AMO1 HMCL [4]): no differences between single and co-treatment; IC50 (XG21; Homo sapiens): 2 nM; IC50 (OPM2; Homo sapiens, OPM-2): 16 nM; IC50 (XG1; Homo sapiens): 12 nM; γH2AX (DNA damages) on co-treatment with melphalan (AMO1 HMCL [3]; AMO1, inhibitor at IC20, 4 days): significantly potentialized the melphalan co-treatment by increasing […]H2AX; IC20 (AMO1; Homo sapiens): 5.4 nM; IC50 (AMO1; Homo sapiens): 8.2 nM
N[C@@H](Cc1ccc(N(CCCl)CCCl)cc1)C(=O)O [melphalan] | – | – | – | – | – | increased the measured […]H2AX | – | – | – | – | – | – | – | – | – | –
COc1c(Nc2cc(C)[nH]n2)nc(Sc2ccc(S(=O)(=O)Cc3cccc([N+](=O)[O-])c3F)cc2F)nc1N1CCCCC1 [Centrinone-B] | synergized with the conventional treatment | 1390 | 440 | 226 | potentialized cell death only with lenalidomide | – | 24 | 421 | – | – | arrested the cell cycle in G0/G1 | less effective on cell viability | barely affected | reduced the number of tumoral cells | – | –
AZ3146 | – | 3000 | 1900 | 1200 | didn't have any significant additional effect on cell death | – | 1400 | 2600 | – | – | arrested the cell cycle in G0/G1 | – | – | – | – | –
Cl.O=c1[nH]c([C@@H]2CCCN2)nc2c1oc1ccc(Cl)cc12 [XL413] | – | 30300 | 24500 | 4200 | increase cell death via apoptosis | showed an activity on […]H2AX recruitment when used alone | 9400 | 19900 | – | synergized with the conventional treatment | arrested the cells in S phase | – | – | – | reversed the melphalan resistance | cell cycle arrest on co-treatment with melphalan or lenalidomide (AMO1 HMCL [4]): no differences between single and co-treatment
N#Cc1c2nc3ccccc3nc2n2ccc(NC(=O)c3cccs3)cc12 [HI)TOPK] | synergized with the conventional treatment | 4100 | 5000 | 4400 | – | – | 3900 | 5100 | potentialized | synergized with the conventional treatment | – | – | – | – | reversed the melphalan resistance | –
NC(=O)Nc1cc(-c2cccc(F)c2)sc1C(=O)N[C@H]1CCCNC1 [AZD7762] | synergized with the conventional treatment | – | – | – | increase cell death via apoptosis | – | – | – | potentialized | synergized with the conventional treatment | arrested the cells in S phase | demonstrated similar efficiency | barely affected | reduced the number of tumoral cells | reversed the melphalan resistance | IC50 (XG21; Homo sapiens): 210 nM; IC50 (OPM2; Homo sapiens, OPM-2): 116 nM; IC50 (XG1; Homo sapiens): 95 nM; claspin and survivin (AMO1 HMCL [8]): decrease in claspin and survivin; IC20 (AMO1; Homo sapiens): 82 nM; IC50 (AMO1; Homo sapiens): 136 nM
